The target in assay [1] is T1, recombinant human CK2 catalytic subunit (rhCK2α) (Homo sapiens, UniProt P68400).
T1 construct: made in house
Nature of the assay: radiometric P81 filter isotopic kinase assay, CK2α. The format is biochemical. On the procedure:
(§1) Synthetic peptide […] served as the substrate for CK2, while peptide […] was used as the substrate for PIM-1.
(§2) The synthesized compounds were evaluated for their inhibitory activity against human CK2α, the human CK2 holoenzyme, and PIM-1 using the P81 filter-based isotopic assay, as previously described. […] The experimental data were fitted to a dose–response curve using non-linear regression analysis (variable slope) Y = Bottom + (Top − Bottom)/(1 + 10^((LogIC50 − X) × HillSlope) equation in GraphPad Prism (Prism 9, version 9.0.1).

The next assay concerns the target T2, PIM-1 kinase (Homo sapiens, UniProt P11309).
T2 construct: made in house
Nature of the assay: radiometric P81 filter isotopic kinase assay, PIM-1. The assay is classed as biochemical. The method, then: as §1, §2

Assay [2] concerns CCRF-CEM (acute lymphoblastic leukemia). In words: MTT-based viability assay, CCRF-CEM. The assay is classed as cell-based, human. On the procedure: (§3) 3. The cytotoxicity of the newly obtained inhibitors, i.e., 1, 2, and 4 was tested towards four cell lines, i.e., CCRF-CEM (acute lymphoblastic leukemia ALL), MCF-7 (breast carcinoma), MDA-MB-231 (triple negative breast carcinoma), and Vero (Cercopithecus aethiops kidney).
(§4) The CCRF-CEM (acute lymphoblastic leukemia, ALL) and MDA-MB-231 (triple-negative breast adenocarcinoma) cell lines were obtained from the European Collection of Authenticated Cell Cultures (ECACC), while the MCF-7 (hormone-dependent breast adenocarcinoma) and Vero (Cercopithecus aethiops kidney) cell lines were purchased from the American Type Culture Collection (ATCC, Manassas, VA, USA). CCRF-CEM cells were maintained in RPMI-1640 medium, whereas MCF-7 and MDA-MB-231 cells were cultured in DMEM (Sigma-Aldrich Chemical Company, St. Louis, MO, USA). Vero cells were cultured in minimum essential medium eagle (MEM; Sigma-Aldrich). All media were supplemented with 10% fetal bovine serum (FBS), 2 mM L-glutamine, and antibiotics (100 U/mL penicillin and 100 µg/mL streptomycin) (Sigma-Aldrich). Cells were grown in 75-cm^2 culture flasks (Googlab Scientific, Rakocin, Poland) in a humidified atmosphere containing 5% CO2 at 37 °C. All experiments were performed using exponentially growing cultures. Stock solutions of the test compounds were prepared in DMSO and stored at –80 °C for up to one month.
(§5) Following incubation with the tested compounds, the MTT assay was carried out as previously described. Optical density was measured at 570 nm using a BioTek microplate reader (Winooski, VT, USA). All measurements were performed in at least three independent biological replicates.
For orientation: Tetrazolium dyes change colour on reduction, which living cells bring about.

For a further assay, the system named is MCF-7 (breast carcinoma). In words: MTT-based viability assay, MCF-7. The format is cell-based, human. The method, then: as §3, §4, §5
Assay [3] has as its system MDA-MB-231 (breast carcinoma). In words: MTT-based viability assay, MDA-MB-231. The format is cell-based, human. The method, then:
as §3, §4, §5

Assay [4] relates to Vero (Cercopithecus aethiops kidney). In words: MTT-based viability assay, Vero. The note with it: Chlorocebus sabaeus, MTT, 48 h, non-cancerous cells, read-out: IC50 [µM] Vero. The format is cell-based. On the procedure: as §3, §4, §5
Assay [5] concerns PIM-1 kinase in MCF-7 cells (Ser112 in BAD). Nature of the assay: Western blot of phosphorylated BAD (Ser112), marker of PIM kinase activity, MCF-7. The assay is classed as cell-based, human. The note with it: 16 µM, 24 h, untreated cells = 1. The method, then:
After 24 h of treatment, we assessed site-specific phosphorylation of Ser529 in NF-κB p65 and Ser112 in BAD—a marker of PIM kinase activity—using Western blot analysis (Figure 8). The data for BAD confirmed intracellular inhibition of this kinase by the tested compounds in both cell lines in a dose-dependent manner. A statistically significant decrease in phosphorylated BAD was observed following treatment with 16 µM of compound 1, with relative protein levels reduced to 0.48 and 0.46 in CCRF-CEM and MCF-7 cells, respectively (Figure 8a–c).
Exponentially growing CCRF-CEM or MCF-7 cells were seeded at a density of 6 × 10^5 cells per 6 cm dish. Compounds were then added, with a final DMSO concentration of 0.5%. Cell lysates were prepared as previously described. The ECL substrate was used for signal detection, and the immunoblots were scanned using a G:BOX Chemi imaging system (Syngene, Cambridge, UK) equipped with GeneSys software, Version 1.4.3.0 (Syngene, Cambridge, UK).
For densitometric analysis, immunoblots were scanned using the G:BOX Chemi system (Syngene), and the band intensities of phosphorylated and total proteins were quantified with GeneSys software (Syngene, Cambridge, UK). The levels of phosphorylated proteins were normalized to GAPDH, with the value for untreated cells set to 1, and subsequently expressed as a percentage relative to the appropriate control.

Setting [6] is: IC50 for Vero/IC50 for cancer cells.

As usually defined, the IC50 is the concentration that gives 50% inhibition.

T2 sequence (P11309 whole entry): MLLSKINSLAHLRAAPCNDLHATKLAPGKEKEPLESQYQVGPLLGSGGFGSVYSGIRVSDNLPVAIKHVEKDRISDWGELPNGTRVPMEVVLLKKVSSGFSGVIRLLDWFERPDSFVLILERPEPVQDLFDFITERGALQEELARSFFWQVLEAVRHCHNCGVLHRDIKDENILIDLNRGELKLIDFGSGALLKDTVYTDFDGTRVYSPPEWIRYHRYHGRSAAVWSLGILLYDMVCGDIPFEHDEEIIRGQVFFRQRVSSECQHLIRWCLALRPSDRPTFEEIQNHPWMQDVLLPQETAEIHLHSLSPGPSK
T1 sequence (P68400 whole entry): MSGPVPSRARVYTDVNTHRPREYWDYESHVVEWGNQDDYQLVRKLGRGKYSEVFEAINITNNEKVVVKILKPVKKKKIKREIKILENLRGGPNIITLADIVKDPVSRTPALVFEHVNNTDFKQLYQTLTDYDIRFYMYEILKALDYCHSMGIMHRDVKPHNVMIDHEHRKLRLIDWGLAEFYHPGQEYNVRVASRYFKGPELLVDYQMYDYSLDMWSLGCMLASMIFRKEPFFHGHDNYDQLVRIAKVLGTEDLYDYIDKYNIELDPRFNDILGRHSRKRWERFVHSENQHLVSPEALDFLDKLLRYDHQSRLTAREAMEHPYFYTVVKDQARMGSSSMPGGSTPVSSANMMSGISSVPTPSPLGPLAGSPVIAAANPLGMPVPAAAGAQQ

As to `CC(=O)Cn1cnc2c(Br)c(Br)c(Br)c(Br)c21` [compound 1, 1-(4,5,6,7-tetrabromo-1H-benzimidazol-1-yl)propan-2-one], the IC50 is 6.65 ± 0.74 µM in assay [1]; 0.52 ± 0.02 µM against PIM-1 kinase; 12.4 ± 0.82 µM in assay [2] (Homo sapiens, CCRF-CEM, MTT, 48 h, read-out: IC50 [µM] CCRF-CEM); 17.1 ± 2.07 µM in the assay on MCF-7 (breast carcinoma) (Homo sapiens, MCF7, MTT, 48 h, read-out: IC50 [µM] MCF-7); 21.2 ± 0.76 µM in assay [3] (Homo sapiens, MDA-MB-231, MTT, 48 h, read-out: IC50 [µM] MDA-MB-231); 20.2 ± 3.59 µM in assay [4]. Further, the remaining activity at 2 µM in assay [1] (cpd. concentration 2 μM, read-out: CK2α Residual Activity [%]) was 58.5 ± 2.2%; on PIM-1 kinase (cpd. concentration 2 μM, read-out: PIM-1 Residual Activity [%]), 22.4 ± 0.9%. The remaining activity at 5 µM in assay [1] (cpd. concentration 5 μM, read-out: CK2α Residual Activity [%]) worked out at 32.3 ± 0.3%; at PIM-1 kinase (cpd. concentration 5 μM, read-out: PIM-1 Residual Activity [%]), 10.3 ± 0.7%. Also, the remaining activity at 20 µM came out at 10.2 ± 0.6% in assay [1] (cpd. concentration 20 μM, read-out: CK2α Residual Activity [%]) and 2.9 ± 0.2% at PIM-1 kinase (cpd. concentration 20 μM, read-out: PIM-1 Residual Activity [%]). The “SI (selectivity index) CCRF-CEM” value in assay [2] (setting [6]) was 1.62. Besides, the “SI (selectivity index) MCF-7” value in the assay with MCF-7 (breast carcinoma) (setting [6]) was 1.18. For the same compound, the “SI (selectivity index) MDA-MB-231” value in assay [3] (setting [6]) is on record as 0.95. For the same compound, the “relative level of phosphorylated BAD (Ser112), MCF-7” value in assay [5] turned out to be 0.46.

These data come from publication PMC12193579, “Pro-Apoptotic Activity of 1-(4,5,6,7-Tetrabromo-1H-benzimidazol-1-yl)propan-2-one, an Intracellular Inhibitor of PIM-1 Kinase in Acute Lymphoblastic Leukemia and Breast Cancer Cells” (International Journal of Molecular Sciences, 2025).
